Experimental data from US11697648B2, “Fused pyrimidine pyridinone compounds as JAK inhibitors” (THERAVANCE BIOPHARMA R&D IP, LLC, priority 2019, dated 2023).

Columns and labels:
JAK1 = JAK1 (Homo sapiens (Human), UniProt P23458); experiment: Biochemical JAK1 kinase assay (LanthaScreen)
Experimental: (§1) Assay 1: Biochemical JAK and Tyk2 Kinase Assays
(§2) A panel of four LanthaScreen JAK biochemical assays (JAK1, 2, 3 and Tyk2) were carried in a common kinase reaction buffer (50 mM HEPES, pH 7.5, 0.01% Brij-35, 10 mM MgCl2, and 1 mM EGTA). Recombinant GST-tagged JAK enzymes and a GFP-tagged STAT1 peptide substrate were obtained from Life Technologies.
(§3) Serially or discretely diluted compounds were pre-incubated with each of the four JAK enzymes and the substrate in white 384-well microplates (Corning) at ambient temperature for 1 h. ATP was subsequently added to initiate the kinase reactions in 10 μL total volume, with 1% DMSO. […] Kinase reactions were allowed to proceed for 1 hour at ambient temperature before a 10 μL preparation of EDTA (10 mM final concentration) and Tb-anti-pSTAT1 (pTyr701) antibody (Life Technologies, 2 nM final concentration) in TR-FRET dilution buffer (Life Technologies) was added. The plates were allowed to incubate at ambient temperature for 1 h before being read on the EnVision reader (Perkin Elmer). Emission ratio signals (520 nm/495 nm) were recorded and utilized to calculate the percent inhibition values based on DMSO and background controls.
(§4) For dose-response analysis, percent inhibition data were plotted vs. compound concentrations, and IC50 values were determined from a 4-parameter robust fit model with the Prism software (GraphPad Software). Results were expressed as pIC50 (negative logarithm of IC50) and subsequently converted to pKi (negative logarithm of dissociation constant, Ki) using the Cheng-Prusoff equation.

JAK2 = JAK2 (Homo sapiens (Human), UniProt O60674); experiment: Biochemical JAK2 kinase assay (LanthaScreen)
Experimental: as §1, §2, §3, §4

JAK3 = JAK3 (Homo sapiens (Human), UniProt P52333); experiment: Biochemical JAK3 kinase assay (LanthaScreen)
Experimental: as §1, §2, §3, §4

Tyk2 = Tyk2 (Homo sapiens (Human), UniProt P29597); experiment: Biochemical Tyk2 kinase assay (LanthaScreen)
Experimental: as §1, §2, §3, §4

[1] = test system: IL-2 stimulated STAT5 phosphorylation in Tall-1 human T cell line (JAK3); experiment: Cellular JAK3 potency assay: inhibition of IL-2 stimulated pSTAT5 in Tall-1 T cells; format: cell-based
Experimental: Assay 2: Cellular JAK3 Potency Assay: Inhibition of IL-2 Stimulated pSTAT5 in Tall-1 T Cells
The potency of test compounds for inhibition of interleukin-2 (IL-2) stimulated STAT5 phosphorylation was measured in the Tall-1 human T cell line (DSMZ) using AlphaLisa. Because IL-2 signals through JAK3, this assay provides a measure of JAK3 cellular potency.
Phosphorylated STAT5 was measured via the AlphaLISA SureFire Ultra pSTAT5 (Tyr694/699) kit (PerkinElmer).
Human T cells from the Tall-1 cell line were cultured in a 37° C., 5% CO2 humidified incubator in RPMI (Life Technologies) supplemented with 15% Heat Inactivated Fetal Bovine Serum (FBS, Life Technologies), 2 mM Glutamax (Life Technologies), 25 mM HEPES (Life Technologies) and 1× Pen/Strep (Life Technologies). Compounds were serially diluted in DMSO and dispensed acoustically to empty wells. Assay media (phenol red-free DMEM (Life Technologies) supplemented with 10% FBS (ATCC)) was dispensed (4 μL/well) and plates shaken at 900 rpm for 10 inns. Cells were seeded at 45,000 cells/well in assay media (4 μL/well), and incubated at 37° C., 5% CO2 for 1 hour, followed by the addition of IL-2 (R&D Systems; final concentration 300 ng/ml) in pre-warmed assay media (4 μL) for 30 minutes. After cytokine stimulation, cells were lysed with 6 ul of 3× AlphaLisa Lysis Buffer (PerkinElmer) containing 1× PhosStop and Complete tablets (Roche). The lysate was shaken at 900 rpm for 10 minutes at room temperature (RT). Phosphorylated STAT5 was measured via the pSTAT5 AlphaLisa kit (PerkinElmer). Freshly prepared acceptor bead mixture was dispensed onto lysate (5 μL) under green filtered <100 lux light. Plates were shaken at 900 rpm for 2 mins, briefly spun down, and incubated for 2 hrs at RT in the dark. Donor beads were dispensed (5 μL) under green filtered <100 lux light. Plates were shaken at 900 rpm for 2 minutes, briefly spun down, and incubated overnight at RT in the dark. Luminescence was measured with excitation at 689 nm and emission at 570 nm using an EnVision plate reader (PerkinElmer) under green filtered <100 lux light.
To determine the inhibitory potency of test compounds in response to IL-2, the average emission intensity of beads bound to pSTAT5 was measured in a human T cell line. IC50 values were determined from analysis of the inhibition curves of signal intensity versus compound concentration. Data are expressed as pIC50 (negative decadic logarithm IC50) values (mean standard deviation).

[2] = selectivity, difference of pKi values
[3] = IL-2 stimulated pSTAT5 in Tall-1 T cells
[4] = selectivity JAK3 over JAK1, difference of pKi
[5] = IL-2 stimulated pSTAT5, Tall-1 T cells

Chain of JAK2 (O60674 whole entry): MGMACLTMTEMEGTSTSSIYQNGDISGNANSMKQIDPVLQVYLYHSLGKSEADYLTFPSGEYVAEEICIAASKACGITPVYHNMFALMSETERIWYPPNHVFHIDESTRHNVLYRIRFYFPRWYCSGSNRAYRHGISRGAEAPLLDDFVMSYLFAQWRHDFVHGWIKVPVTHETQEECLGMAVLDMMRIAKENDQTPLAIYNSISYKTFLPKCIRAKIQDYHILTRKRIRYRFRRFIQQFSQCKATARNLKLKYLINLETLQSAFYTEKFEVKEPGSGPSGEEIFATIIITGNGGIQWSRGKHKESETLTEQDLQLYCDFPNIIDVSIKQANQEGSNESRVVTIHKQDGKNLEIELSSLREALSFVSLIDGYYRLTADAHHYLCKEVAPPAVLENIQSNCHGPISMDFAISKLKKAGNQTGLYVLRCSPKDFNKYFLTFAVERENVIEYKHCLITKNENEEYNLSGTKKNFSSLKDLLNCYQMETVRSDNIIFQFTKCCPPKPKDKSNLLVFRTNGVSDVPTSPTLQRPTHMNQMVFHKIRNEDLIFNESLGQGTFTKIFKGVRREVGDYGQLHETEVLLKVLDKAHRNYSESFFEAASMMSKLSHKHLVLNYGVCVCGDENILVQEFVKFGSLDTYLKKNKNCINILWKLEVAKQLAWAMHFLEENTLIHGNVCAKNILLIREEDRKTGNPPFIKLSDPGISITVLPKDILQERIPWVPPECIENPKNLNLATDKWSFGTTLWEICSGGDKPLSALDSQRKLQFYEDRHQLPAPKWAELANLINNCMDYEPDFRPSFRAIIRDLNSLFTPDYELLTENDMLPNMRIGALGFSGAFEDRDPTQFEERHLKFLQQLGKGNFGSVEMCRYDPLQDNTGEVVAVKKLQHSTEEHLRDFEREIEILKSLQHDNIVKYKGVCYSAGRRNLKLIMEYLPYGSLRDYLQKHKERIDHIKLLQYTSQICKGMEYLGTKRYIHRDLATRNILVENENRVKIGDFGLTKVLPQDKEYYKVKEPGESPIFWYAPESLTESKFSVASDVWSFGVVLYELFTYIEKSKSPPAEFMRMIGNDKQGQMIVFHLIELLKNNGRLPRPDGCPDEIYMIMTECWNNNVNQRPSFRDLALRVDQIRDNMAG
Chain of JAK3 (P52333 whole entry): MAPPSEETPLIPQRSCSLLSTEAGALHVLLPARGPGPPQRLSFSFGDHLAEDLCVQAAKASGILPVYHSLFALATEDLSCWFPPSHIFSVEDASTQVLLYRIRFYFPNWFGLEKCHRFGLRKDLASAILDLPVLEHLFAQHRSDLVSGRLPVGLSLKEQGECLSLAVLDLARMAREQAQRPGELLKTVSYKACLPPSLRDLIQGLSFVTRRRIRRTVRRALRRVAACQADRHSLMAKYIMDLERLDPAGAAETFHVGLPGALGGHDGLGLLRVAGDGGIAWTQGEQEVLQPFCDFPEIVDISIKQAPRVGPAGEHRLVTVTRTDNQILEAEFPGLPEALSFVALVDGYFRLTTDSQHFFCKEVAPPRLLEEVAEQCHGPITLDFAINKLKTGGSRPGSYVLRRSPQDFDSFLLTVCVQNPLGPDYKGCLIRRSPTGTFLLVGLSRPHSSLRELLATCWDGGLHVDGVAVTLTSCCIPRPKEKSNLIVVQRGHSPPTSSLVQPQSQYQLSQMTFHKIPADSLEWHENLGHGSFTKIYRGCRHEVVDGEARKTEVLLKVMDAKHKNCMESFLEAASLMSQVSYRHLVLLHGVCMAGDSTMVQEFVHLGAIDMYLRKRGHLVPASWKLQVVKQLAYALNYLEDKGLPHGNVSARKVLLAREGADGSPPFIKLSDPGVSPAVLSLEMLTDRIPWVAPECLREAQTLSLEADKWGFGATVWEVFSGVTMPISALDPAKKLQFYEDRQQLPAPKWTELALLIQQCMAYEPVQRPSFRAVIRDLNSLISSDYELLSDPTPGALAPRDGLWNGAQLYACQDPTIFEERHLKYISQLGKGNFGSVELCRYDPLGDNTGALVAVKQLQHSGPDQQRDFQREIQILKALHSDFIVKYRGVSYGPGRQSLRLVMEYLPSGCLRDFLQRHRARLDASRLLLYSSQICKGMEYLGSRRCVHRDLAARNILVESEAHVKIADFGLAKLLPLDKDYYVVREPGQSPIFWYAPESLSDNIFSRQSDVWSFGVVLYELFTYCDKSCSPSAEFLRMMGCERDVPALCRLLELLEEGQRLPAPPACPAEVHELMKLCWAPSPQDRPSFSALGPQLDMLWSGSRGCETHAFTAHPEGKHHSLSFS
Chain of Tyk2 (P29597 whole entry): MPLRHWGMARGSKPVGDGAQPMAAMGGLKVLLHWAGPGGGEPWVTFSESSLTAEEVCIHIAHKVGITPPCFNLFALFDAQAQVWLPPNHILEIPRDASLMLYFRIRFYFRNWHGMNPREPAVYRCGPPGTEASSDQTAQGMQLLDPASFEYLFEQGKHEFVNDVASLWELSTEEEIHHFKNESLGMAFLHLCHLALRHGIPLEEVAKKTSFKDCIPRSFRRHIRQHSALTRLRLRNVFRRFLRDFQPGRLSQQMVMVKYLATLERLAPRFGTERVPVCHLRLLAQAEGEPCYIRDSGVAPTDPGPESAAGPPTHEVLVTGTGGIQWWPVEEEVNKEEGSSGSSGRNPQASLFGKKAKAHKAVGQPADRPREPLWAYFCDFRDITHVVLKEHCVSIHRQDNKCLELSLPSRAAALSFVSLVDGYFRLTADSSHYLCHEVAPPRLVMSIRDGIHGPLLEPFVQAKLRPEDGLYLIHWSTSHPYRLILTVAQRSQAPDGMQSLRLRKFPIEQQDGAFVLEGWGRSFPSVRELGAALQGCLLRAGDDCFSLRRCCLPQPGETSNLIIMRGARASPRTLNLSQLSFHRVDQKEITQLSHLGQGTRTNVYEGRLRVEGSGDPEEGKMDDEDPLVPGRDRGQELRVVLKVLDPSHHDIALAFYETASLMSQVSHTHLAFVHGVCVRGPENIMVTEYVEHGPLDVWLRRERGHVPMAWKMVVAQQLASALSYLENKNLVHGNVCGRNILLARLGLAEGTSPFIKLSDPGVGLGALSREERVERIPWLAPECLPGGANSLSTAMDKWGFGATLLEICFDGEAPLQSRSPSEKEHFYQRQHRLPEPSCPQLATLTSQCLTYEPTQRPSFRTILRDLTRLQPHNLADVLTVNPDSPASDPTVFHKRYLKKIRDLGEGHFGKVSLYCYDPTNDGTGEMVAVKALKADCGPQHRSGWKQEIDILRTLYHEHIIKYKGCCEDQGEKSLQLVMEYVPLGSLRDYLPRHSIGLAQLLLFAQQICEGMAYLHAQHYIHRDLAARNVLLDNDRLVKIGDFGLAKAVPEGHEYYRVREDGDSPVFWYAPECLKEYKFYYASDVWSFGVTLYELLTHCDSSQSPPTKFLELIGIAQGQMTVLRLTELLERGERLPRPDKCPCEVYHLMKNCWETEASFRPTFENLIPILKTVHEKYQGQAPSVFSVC
Chain of JAK1 (P23458 whole entry): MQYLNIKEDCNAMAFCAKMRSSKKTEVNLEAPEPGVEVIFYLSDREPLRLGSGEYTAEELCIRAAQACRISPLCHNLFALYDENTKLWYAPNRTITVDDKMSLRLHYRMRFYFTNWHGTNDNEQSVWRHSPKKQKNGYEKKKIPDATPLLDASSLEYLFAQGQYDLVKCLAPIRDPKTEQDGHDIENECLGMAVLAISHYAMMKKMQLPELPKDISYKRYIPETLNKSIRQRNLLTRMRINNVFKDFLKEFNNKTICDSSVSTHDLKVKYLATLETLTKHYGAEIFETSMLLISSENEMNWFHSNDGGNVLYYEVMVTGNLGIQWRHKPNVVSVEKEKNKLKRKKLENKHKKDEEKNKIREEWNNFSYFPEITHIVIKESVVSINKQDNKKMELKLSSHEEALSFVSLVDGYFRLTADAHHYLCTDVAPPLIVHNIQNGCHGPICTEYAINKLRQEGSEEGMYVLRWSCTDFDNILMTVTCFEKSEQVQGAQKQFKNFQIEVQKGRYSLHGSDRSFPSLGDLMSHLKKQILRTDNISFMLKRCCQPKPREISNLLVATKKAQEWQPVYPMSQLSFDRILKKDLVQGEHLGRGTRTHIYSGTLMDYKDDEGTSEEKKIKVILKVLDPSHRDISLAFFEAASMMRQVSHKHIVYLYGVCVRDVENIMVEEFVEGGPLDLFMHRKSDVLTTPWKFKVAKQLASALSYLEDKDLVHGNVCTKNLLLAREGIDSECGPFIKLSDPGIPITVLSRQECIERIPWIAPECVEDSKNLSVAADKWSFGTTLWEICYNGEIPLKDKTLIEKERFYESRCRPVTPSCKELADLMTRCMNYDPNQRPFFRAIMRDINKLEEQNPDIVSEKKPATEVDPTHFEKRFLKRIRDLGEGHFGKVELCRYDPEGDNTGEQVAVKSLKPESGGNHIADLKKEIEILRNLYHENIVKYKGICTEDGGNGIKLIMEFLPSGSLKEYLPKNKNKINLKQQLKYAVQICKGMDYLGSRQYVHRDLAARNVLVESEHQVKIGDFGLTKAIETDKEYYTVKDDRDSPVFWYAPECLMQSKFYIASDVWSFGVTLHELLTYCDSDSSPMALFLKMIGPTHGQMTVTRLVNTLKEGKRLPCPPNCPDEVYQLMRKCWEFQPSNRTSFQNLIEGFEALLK

Row | SMILES | JAK 1 (pKi) (JAK1) | JAK 2 (pKi) (JAK2) | JAK 3 (pKi) (JAK3) | JAK3 (pKi)-JAK1 (pKi) (JAK3; [2]) | Tyk 2 (pKi) (Tyk2) | Tall-1 (pIC50) [1, 3] | JAK3 (pKi)-JAK1 (pKi) (JAK3; [4]) | Tall-1 (pIC50) [1, 5]
1 | C=CC(=O)N1CCN(CCn2c(=O)ccc3cnc(Nc4cnn(CCN5CCOCC5)c4)nc32)[C@@H](C)C1 [Example 245] | E (E represents a pKi value of 7 or below (Ki of 100 nM or above)) | E (E represents a pKi value of 7 or below (Ki of 100 nM or above)) | B (B represents pKi value between 9 and 10 (Ki between 1 nM and 0.1 nM)) | A (A represents a value of 3 or above) | E (E represents a pKi value of 7 or below (Ki of 100 nM or above)) | B (B represents a pC50 value between 6.7 (included) and 7.5 (IC50 between 200 nM and 32 nM)) | – | –
2 | C=CC(=O)N1CC(CCn2c(=O)ccc3cnc(Nc4ccc(N5CCN(C6CC6)CC5)cc4)nc32)C1 [Example 118] | E (E represents a pKi value of 7 or below (Ki of 100 nM or above)) | E (E represents a pKi value of 7 or below (Ki of 100 nM or above)) | B (B represents pKi value between 9 and 10 (Ki between 1 nM and 0.1 nM)) | – | E (E represents a pKi value of 7 or below (Ki of 100 nM or above)) | – | A (A represents a value of 3 or above) | B (B represents a pC50 value between 6.7 (included) and 7.5 (IC50 between 200 nM and 32 nM))
3 | C=CC(=O)N1CCN(CCn2c(=O)ccc3cnc(Nc4cnn(CCOC(C)C)c4)nc32)[C@@H](C)C1 [Example 230] | E (E represents a pKi value of 7 or below (Ki of 100 nM or above)) | E (E represents a pKi value of 7 or below (Ki of 100 nM or above)) | B (B represents pKi value between 9 and 10 (Ki between 1 nM and 0.1 nM)) | – | E (E represents a pKi value of 7 or below (Ki of 100 nM or above)) | – | A (A represents a value of 3 or above) | B (B represents a pC50 value between 6.7 (included) and 7.5 (IC50 between 200 nM and 32 nM))
4 | C=CC(=O)N1CC(CCn2c(=O)ccc3cnc(Nc4ccc(N5CCN(CC(F)(F)F)CC5)cc4)nc32)C1 [Example 119] | E (E represents a pKi value of 7 or below (Ki of 100 nM or above)) | E (E represents a pKi value of 7 or below (Ki of 100 nM or above)) | A (A represents a pKi value≥10 (Ki≤0.1 nM)) | – | E (E represents a pKi value of 7 or below (Ki of 100 nM or above)) | – | A (A represents a value of 3 or above) | B (B represents a pC50 value between 6.7 (included) and 7.5 (IC50 between 200 nM and 32 nM))
5 | C=CC(=O)N1CC(CCn2c(=O)ccc3cnc(Nc4ccc(N5CCOCC5)c(F)c4)nc32)C1 [Example 23] | E (E represents a pKi value of 7 or below (Ki of 100 nM or above)) | E (E represents a pKi value of 7 or below (Ki of 100 nM or above)) | B (B represents pKi value between 9 and 10 (Ki between 1 nM and 0.1 nM)) | – | E (E represents a pKi value of 7 or below (Ki of 100 nM or above)) | – | A (A represents a value of 3 or above) | B (B represents a pC50 value between 6.7 (included) and 7.5 (IC50 between 200 nM and 32 nM))
6 | C=CC(=O)N1CCN(CCn2c(=O)ccc3cnc(Nc4cnn(CC(F)F)c4)nc32)[C@@H](C)C1 [Example 232] | E (E represents a pKi value of 7 or below (Ki of 100 nM or above)) | E (E represents a pKi value of 7 or below (Ki of 100 nM or above)) | A (A represents a pKi value≥10 (Ki≤0.1 nM)) | – | E (E represents a pKi value of 7 or below (Ki of 100 nM or above)) | – | A (A represents a value of 3 or above) | B (B represents a pC50 value between 6.7 (included) and 7.5 (IC50 between 200 nM and 32 nM))
7 | C=CC(=O)N1CCN(CCn2c(=O)ccc3cnc(Nc4ccccc4)nc32)CC1 [Example 40] | E (E represents a pKi value of 7 or below (Ki of 100 nM or above)) | – | B (B represents pKi value between 9 and 10 (Ki between 1 nM and 0.1 nM)) | – | – | – | A (A represents a value of 3 or above) | C (C represents a pIC50 value between 6 and 6.7 (IC50 between 1 μM and 200 nM))
8 | C=CC(=O)N1CCN(CCn2c(=O)ccc3cnc(Nc4cnn(C)c4)nc32)[C@@H](CN(C)C)C1 [Example 262] | E (E represents a pKi value of 7 or below (Ki of 100 nM or above)) | – | C (C represents a pKi value between 8 and 9 (Ki between 10 nM and 1 nM)) | B (B represents a value of 2.5 to 3) | – | C (C represents a pIC50 value between 6 and 6.7 (IC50 between 1 μM and 200 nM)) | – | –
9 | C=CC(=O)N1CCN(CCn2c(=O)ccc3cnc(Nc4cnn(CCOC(C)C)c4)nc32)CC1 [Example 42] | E (E represents a pKi value of 7 or below (Ki of 100 nM or above)) | – | B (B represents pKi value between 9 and 10 (Ki between 1 nM and 0.1 nM)) | – | – | – | A (A represents a value of 3 or above) | C (C represents a pIC50 value between 6 and 6.7 (IC50 between 1 μM and 200 nM))
10 | C=CC(=O)N1CCN(CCn2c(=O)ccc3cnc(Nc4ccc(N5C[C@@H](C)N(C)[C@H](C)C5)cc4)nc32)[C@@H](CC)C1 [Example 263] | E (E represents a pKi value of 7 or below (Ki of 100 nM or above)) | – | B (B represents pKi value between 9 and 10 (Ki between 1 nM and 0.1 nM)) | A (A represents a value of 3 or above) | – | A (A represents a pIC50 value≥7.5 (IC50≤32 nM)) | – | –
11 | C=CC(=O)N1CC(CCn2c(=O)ccc3cnc(Nc4cnn(CCOC)c4)nc32)C1 [Example 21] | E (E represents a pKi value of 7 or below (Ki of 100 nM or above)) | – | B (B represents pKi value between 9 and 10 (Ki between 1 nM and 0.1 nM)) | – | – | – | A (A represents a value of 3 or above) | C (C represents a pIC50 value between 6 and 6.7 (IC50 between 1 μM and 200 nM))
12 | C=CC(=O)N1CC(CCn2c(=O)ccc3cnc(Nc4cnn(CCN(C)C)c4)nc32)C1 [Example 22] | E (E represents a pKi value of 7 or below (Ki of 100 nM or above)) | – | B (B represents pKi value between 9 and 10 (Ki between 1 nM and 0.1 nM)) | – | – | – | A (A represents a value of 3 or above) | C (C represents a pIC50 value between 6 and 6.7 (IC50 between 1 μM and 200 nM))
13 | C=CC(=O)N1CCN(CCn2c(=O)ccc3cnc(Nc4ccn(C(C)C)n4)nc32)[C@@H](CC)C1 [Example 259] | E (E represents a pKi value of 7 or below (Ki of 100 nM or above)) | – | B (B represents pKi value between 9 and 10 (Ki between 1 nM and 0.1 nM)) | A (A represents a value of 3 or above) | – | C (C represents a pIC50 value between 6 and 6.7 (IC50 between 1 μM and 200 nM)) | – | –
